These results are taken from patent US5814646A, “Inhibitors of amyloid beta-protein production” (Eli Lilly and Company, priority 1995, dated 1998).

Bounds are passed on as bounds.

One assay concerns Aβ production in 293 751 SWE and CHO 751 SWE cells (transfected with APP-751 Swedish mutation). Put plainly: Aβ production inhibition activity in cells (Aβ ELISA of conditioned media, normalized for cytotoxicity by MTT). Format: cell-based. Conditions: 10 μg/ml, % of drug-free control, normalized to MTT. The procedure, abridged: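 293 and CHO cells stably expressing APP-751 with the Swedish mutation were seeded in 96-well plates and grown overnight at 37° C. They were pretreated with compound for two hours, then given fresh compound-containing media for two more hours. Aβ in the conditioned media was quantified by sandwich ELISA (antibodies 266 and 6C6) and normalized to MTT viability versus drug-free control.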
(In general: ELISA stands for enzyme-linked immunosorbent assay.)
As to `Cc1cc(C(=O)Nc2ccc(Cl)c(Cl)c2)no1` [Compound 242], the “Aβ Production Inhibition Activity, % inhibition at 10 μg/ml” value is listed as 29%. Consider `O=C(Nc1ccccc1)Nc1nncs1` [Compound 255], for which at 10 µg/mL the inhibition was 1%.

For `O=C(Nc1ccc(Cl)c(Cl)c1)Nc1ncccn1` [Compound 138], at 10 µg/mL the inhibition was 7%. Still for that read-out and setting: then `CC(C)(C)c1cccc(Oc2ccc(NC(=S)Nc3ccccc3C(F)(F)F)cc2)c1` [Compound 189], with 37%; and `CCCc1c(COc2ccc(CN(O)C(=S)NCc3ccccc3)cc2)ccc(C(C)=O)c1O` [Compound 67], with 42%. On the same count and under the same terms, then `Cc1nnc(NC(=O)Nc2cccc(Cl)c2)s1` [Compound 248], with 47%.

`Cc1ccc(CNC(=S)N(O)C(C)c2cccc(Oc3ccc(C(C)(C)C)cc3)c2)cc1C` (centres unmarked) [Compound 9]: the inhibition (commonly the drop in the measured response relative to a control, in per cent) at 10 µg/mL was determined as 62%.

As to `CC(C)(C)c1ccc(Oc2ccccc2NC(=S)NCc2ccccc2)cc1` [Compound 181], the inhibition at 10 µg/mL came to 52%. Consider `CC(C)(C)OC(=O)N1CCCCC1CNC(=S)Nc1ccc(Oc2ccc(C(C)(C)C)cc2)cc1` (centres unmarked) [Compound 124], for which at 10 µg/mL the inhibition was 31%. On the same count and under the same terms, then `CN(Cc1cccc(Oc2ccc(C(C)(C)C)cc2)c1)C(=S)NCc1ccc(Cl)c(Cl)c1` [Compound 44], with 40%; and `CCCCCCNC(=S)N(O)C(CCCCCC)c1cccc(Oc2ccc(C(C)(C)C)cc2)c1` (centres unmarked) [Compound 37], with 0%; and `CS(=O)(=O)c1ccc(NC(=O)Nc2ccc(Cl)cc2)cc1` [Compound 161], with 40%. Same read-out and setting: then `Cc1cccc(CNC(=S)N(O)Cc2ccc(-c3ccccc3)cc2)c1` [Compound 79], with 15%; and `CC(c1cccc(Oc2ccc(C(C)(C)C)cc2)c1)N(O)C(=S)NCc1ccc2c(c1)OCO2` (centres unmarked) [Compound 15], with 28%. As for `O=C(Nc1ccc(Cl)c(Cl)c1)N1CCCCC1` [Compound 229], the “Aβ Production Inhibition Activity, % inhibition at 10 μg/ml” value is given as 8%.

Still in this assay, the particulars now being: 2 h pretreatment + 2 h incubation.
As for `CCC(c1cccc(Oc2ccc(C(C)(C)C)cc2)c1)N(O)C(=S)NCc1cccc(OC)c1` (centres unmarked) [Compound 21], the IC50 – broadly, the point on the concentration scale where inhibition reaches its midpoint – is 5.6 µM. For `CCCCCCNC(=S)N(O)Cc1cccc(S(=O)(=O)c2ccc(C(C)(C)C)cc2)c1` [Compound 90], the IC50 was 22 µM. On the same count and under the same terms, as for `CSc1ccc(NC(=O)Nc2cc(Cl)c(Cl)c(Cl)c2)cc1` [Compound 155], the figure is 5.8 µM; as for `CCCc1c(CSC(=S)NCc2ccccc2)ccc(C(C)=O)c1O` [Compound 199], 2 µM; as for `COc1ccc(CNC(=S)N(O)C(C)c2cccc(Oc3ccc(C(C)(C)C)cc3)c2)cc1` (centres unmarked) [Compound 10], more than 20 µM. Regarding `CSc1cc(Cl)c(NC(=O)Nc2cccc(Cl)c2)cc1Cl` [Compound 163], the IC50 came out at 10.5 µM.

On to `O=C(Nc1ccc(Cl)c(Cl)c1)Nc1nnc(Cl)s1` [Compound 232, 1-(5-chloro-1,3,4-thiadiazol-2-yl)-3-(3,4-dichlorophenyl)urea], for which the IC50 was determined as 2 µM.

With `CC(C)(C)c1cccc(Oc2cccc(N(O)C(=S)Nc3ccc(Cl)c(C(F)(F)F)c3)c2)c1` [Compound 173], the IC50 amounted to 2.8 µM.

As for `CC(C)(C)c1ccc([S+]([O-])c2cccc(CN(O)C(=S)NCc3ccccc3)c2)cc1` (centres unmarked) [Compound 91], the IC50 stood at 17.1 µM. On the same count and under the same terms, as for `CC(C)(C)c1ccc(Oc2ccc(NC(=S)NCCCc3ccccc3)cc2)cc1` [Compound 117], the figure is 17 µM.

For the molecule `CC(C)(C)c1ccc(Oc2ccc(NC(=S)NCc3cccc(C(F)(F)F)c3)cc2)cc1` [Compound 179], the IC50 worked out at 6.5 µM. With `CCCC(c1cccc(Oc2ccc(C(C)(C)C)cc2)c1)N(O)C(=S)NCc1cccc(C)c1` (centres unmarked) [Compound 32], the IC50 was 9 µM. Consider `CC(C)(C)c1cccc(Oc2ccc(NC(=S)NCc3cccc(C(F)(F)F)c3)cc2)c1` [Compound 178], for which the IC50 was 8.6 µM. The same measure, in the same setting: then `CC(C)(C)c1ccc(Oc2ccc(NC(=S)NCc3cccc(Cl)c3)cc2)cc1` [Compound 105], with 9.4 µM; and `O=C(Nc1ccc(Cl)c(Cl)c1)Nc1nnc(C(F)(F)F)s1` [Compound 236, 1-(5-trifluoromethyl-1,3,4-thiadiazol-2-yl)-3-(3,4-dichlorophenyl)urea], with 4.2 µM.

For the molecule `FC(F)(F)c1cc(NC(=S)Nc2ccc(Sc3ccccn3)cc2)ccc1Cl` [Compound 223], the IC50 amounted to 8.3 µM. On to `S=C(Nc1ccc(Oc2ccccc2)cc1)Nc1ccc(Cl)c(Cl)c1` [Compound 148], for which the IC50 was 7.5 µM. On the same count and under the same terms, as for `Cc1cccc(CNC(=S)N(O)C(C)c2cccc(Oc3ccc(C(C)(C)C)cc3)c2)c1` (centres unmarked) [Compound 6], the figure is 11.1 µM. Same read-out and setting: then `COc1ccc(CNC(=S)Nc2ccc(Oc3ccc(C(C)(C)C)cc3)cc2)cc1` [Compound 111], with 8.3 µM. Same read-out and setting: then `CC(C)(C)c1noc(C(=O)Nc2ccc(Cl)c(Cl)c2)n1` [Compound 246], with 5.8 µM; and `CCCCCCNC(=S)N(O)Cc1ccc(Sc2ccc(C(C)(C)C)cc2)cc1` [Compound 89], with 5.3 µM. `O=C(Nc1ccc(Cl)c(Cl)c1)Nc1nncs1` [Compound 235, 1-1,3,4-thiadiazol-2-yl-3-(3,4-dichlorophenyl)urea]: the half-inhibitory concentration (IC50) was 10 µM. Same read-out and setting: as for `CC(C)(C)c1cccc(Oc2cccc(CN(O)C(=S)NCc3ccccc3)c2)c1` [Compound 187], the figure is 12.1 µM; as for `CC(C)(CCl)c1nnc(NC(=O)Nc2ccc(Cl)c(Cl)c2)s1` [Compound 238, 1-[5-(2-chloro-1,1-dimethylethyl)-1,3,4-thiadiazol-2-yl]-3-(3,4-dichlorophenyl)urea], 1.4 µM; as for `O=C(Nc1ccc(Sc2ccc(Cl)c(Cl)c2)cc1)Nc1ccc(Cl)c(Cl)c1` [Compound 145], 6.2 µM. Still for that read-out and setting: as for `O=C(Nc1ccc(Cl)c(Cl)c1)Nc1ccccc1Cl` [Compound 151], the figure is 10.1 µM; as for `O=C(Nc1ccc(Cl)c(Cl)c1)Nc1cccc2ncccc12` [Compound 136], 17.8 µM. The same measure, in the same setting: then `O=C(Nc1ccc(Cl)c(Cl)c1)Nc1nnc(Br)s1` [Compound 240, 1-(5-bromo-1,3,4-thiadiazol-2-yl)-3-(3,4-dichlorophenyl)urea], with 1.8 µM; and `CC(C)(C)c1ccccc1Oc1ccc(NC(=S)NCc2ccccc2)cc1` [Compound 188], with 9.4 µM.
